How the values were obtained:
Thymidylate synthase [1] = target: Thymidylate synthase (Escherichia coli (strain K12), UniProt P0A884); assay: Inhibition Assay
Experimental: (§1) All compounds were screened for inhibitory activity against Lactobacillus casei thymidylate synthase (LcTS) and Escherichia coli thymidylate synthase (EsTS). The inhibition experiments were conducted by measuring the effects of the inhibitor at different concentrations on the initial velocity of the enzyme in the presence of a limited amount of the folate substrate.

Thymidylate synthase [2] = target: T1, Thymidylate synthase (Lacticaseibacillus casei, UniProt P00469); assay: Inhibition Assay
T1 sequence (P00469 whole entry): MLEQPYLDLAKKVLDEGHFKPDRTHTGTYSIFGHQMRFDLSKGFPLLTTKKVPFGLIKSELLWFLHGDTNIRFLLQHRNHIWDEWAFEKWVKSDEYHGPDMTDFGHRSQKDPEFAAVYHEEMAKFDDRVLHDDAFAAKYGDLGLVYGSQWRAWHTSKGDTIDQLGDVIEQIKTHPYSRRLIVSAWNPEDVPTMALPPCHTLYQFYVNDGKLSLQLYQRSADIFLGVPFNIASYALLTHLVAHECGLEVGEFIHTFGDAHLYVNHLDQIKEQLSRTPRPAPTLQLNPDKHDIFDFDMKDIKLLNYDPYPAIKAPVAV
Experimental: as §1

Sequence of Thymidylate synthase (Escherichia coli (strain K12), UniProt P0A884) (P0A884 whole entry): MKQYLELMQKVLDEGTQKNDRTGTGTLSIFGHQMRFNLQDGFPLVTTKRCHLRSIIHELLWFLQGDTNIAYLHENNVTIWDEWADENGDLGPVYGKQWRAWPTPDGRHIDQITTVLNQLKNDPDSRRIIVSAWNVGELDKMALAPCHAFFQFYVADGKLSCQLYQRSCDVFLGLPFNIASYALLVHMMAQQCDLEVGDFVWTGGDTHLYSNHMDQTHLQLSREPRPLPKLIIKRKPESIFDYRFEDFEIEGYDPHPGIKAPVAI

Row | SMILES | Ki (Thymidylate synthase [1]) [µM] | Ki (Thymidylate synthase [2]) [µM]
1 | CN(C)c1cccc2c(S(=O)(=O)N[C@@H](Cc3cc(I)c(OS(=O)(=O)c4cccc5c(N(C)C)cccc45)c(I)c3)C(=O)O)cccc12 [Dansyl derivative, 2L] | 8.2 | 4.4
2 | CN(C)c1cccc2c(S(=O)(=O)Oc3ccc(C[C@H](NS(=O)(=O)c4ccc([N+](=O)[O-])cc4)C(=O)O)cc3)cccc12 [Dansyl derivative, 3L] | > 1330 | 2.5
3 | CN(C)c1cccc2c(S(=O)(=O)Oc3ccc(C[C@H](NC(=O)c4ccc([N+](=O)[O-])cc4)C(=O)O)cc3)cccc12 [Dansyl derivative, 4L] | > 1330 | 15
4 | CN(C)c1cccc2c(S(=O)(=O)Oc3ccc(C[C@H](NS(=O)(=O)c4ccc(C(F)(F)F)cc4[N+](=O)[O-])C(=O)O)cc3)cccc12 [Dansyl derivative, 5L] | > 636 | 6.7
5 | CN(C)c1cccc2c(S(=O)(=O)Oc3ccc4c(c3)CN(S(=O)(=O)c3ccc(C(F)(F)F)cc3[N+](=O)[O-])[C@H](C(=O)O)C4)cccc12 [Dansyl derivative, 5R] | 61 | 5.5
6 | CN(C)c1cccc2c(S(=O)(=O)Oc3ccc4c(c3)CN(S(=O)(=O)CC35CCC(C(=O)C3)C5(C)C)[C@H](C(=O)O)C4)cccc12 (stereo not given in full) [Dansyl derivative, 6R] | 131 | 23
7 | CN(C)c1cccc2c(S(=O)(=O)Oc3ccc(C[C@H](NC(=O)c4ccc5ccccc5c4)C(=O)O)cc3)cccc12 [Dansyl derivative, 7L] | > 1470 | 17
8 | CN(C)c1cccc2c(S(=O)(=O)Oc3ccc(C[C@H](NS(=O)(=O)Cc4ccccc4)C(=O)O)cc3)cccc12 [Dansyl derivative, 8L] | > 1800 | 4.7
9 | CN(C)c1cccc2c(S(=O)(=O)Oc3ccc(C[C@H](NS(=O)(=O)c4cc(Br)c(Br)s4)C(=O)O)cc3)cccc12 [Dansyl derivative, 9L] | > 1330 | 27

Second part, the molecule after the results:

Row | Ki (Thymidylate synthase [1]) [µM] | Ki (Thymidylate synthase [2]) [µM] | SMILES
10 | 7 | 3.6 | CN(C)c1cccc2c(S(=O)(=O)Oc3c(I)cc4c(c3I)CN(S(=O)(=O)c3cccc5c(N(C)C)cccc35)[C@H](C(=O)O)C4)cccc12 [Dansyl derivative, 2R]
11 | 23 | 5.9 | CN(C)c1cccc2c(S(=O)(=O)Oc3ccc4c(c3)CN(S(=O)(=O)c3ccc([N+](=O)[O-])cc3)[C@H](C(=O)O)C4)cccc12 [Dansyl derivative, 3R]
12 | 36 | 15 | CN(C)c1cccc2c(S(=O)(=O)Oc3ccc4c(c3)CN(C(=O)c3ccc([N+](=O)[O-])cc3)[C@H](C(=O)O)C4)cccc12 [Dansyl derivative, 4R]
13 | > 1340 | 5.8 | CN(C)c1cccc2c(S(=O)(=O)Oc3ccc(C[C@H](NS(=O)(=O)CC45CCC(C(=O)C4)C5(C)C)C(=O)O)cc3)cccc12 (stereo not given in full) [Dansyl derivative, 6L]
14 | 1530 | 9.4 | CN(C)c1cccc2c(S(=O)(=O)Oc3ccc4c(c3)CN(C(=O)c3ccc5ccccc5c3)[C@H](C(=O)O)C4)cccc12 [Dansyl derivative, 7R]
15 | 194 | 10 | CN(C)c1cccc2c(S(=O)(=O)Oc3ccc4c(c3)CN(S(=O)(=O)Cc3ccccc3)[C@H](C(=O)O)C4)cccc12 [Dansyl derivative, 8R]
16 | 60 | 4 | CN(C)c1cccc2c(S(=O)(=O)Oc3ccc4c(c3)CN(S(=O)(=O)c3cc(Br)c(Br)s3)[C@H](C(=O)O)C4)cccc12 [Dansyl derivative, 9R]
17 | 1.8 | – | CN(C)c1cccc2c(S(=O)(=O)N[C@@H](Cc3ccc(OS(=O)(=O)c4cccc5c(N(C)C)cccc45)cc3)C(=O)O)cccc12 [Dansyl derivative, DDT, 1L]
18 | 13 | 0.8 | CN(C)c1cccc2c(S(=O)(=O)Oc3ccc4c(c3)CN(S(=O)(=O)c3cccc5c(N(C)C)cccc35)[C@H](C(=O)O)C4)cccc12 [Dansyl derivative, rigid DDT, 1R]

Reference: BindingDB's records for doi:10.1002/cbic.200700524 (Universit&#224, 2008)
